From PubChem BioAssay AID248 (DTP/NCI, 2004) come the findings set out here.

The structures appear in SMILES notation. Values joined by “and” are separate entries in the source; they are usually repeats but may differ in a detail not shown here. Equal values may be shown once. Inconclusive results and toxic doses are left out.

The subject of the experiment is L1210 leukemia ip in BDF1 mice, survival T/C. The experiment is described as follows: NCI In Vivo Anticancer Drug Screen. Data for tumor model L1210 Leukemia (intraperitoneal) in B6D2F1 (BDF1) mice. The settings on record: endpoint: mean survival time, higher = longer survival. In short, it runs like this: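 Value reflects the ratio of survival in compound-treated mice to survival in vehicle-treated controls, with both groups carrying the same transplanted tumor.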

Setting [1] is: dose: 100.0 mg/kg/injection, schedule: Q04DX002 (ip), vehicle: Klucel (hydroxypropylcellulose) (HPC).
The mark [2] stands for this setting: dose: 200.0 mg/kg/injection, schedule: Q04DX002 (ip), vehicle: Klucel (hydroxypropylcellulose) (HPC).
Setting [3] is: dose: 400.0 mg/kg/injection, schedule: Q04DX002 (ip), vehicle: Klucel (hydroxypropylcellulose) (HPC).
The mark [4] stands for this setting: dose: 100.0 mg/kg/injection, schedule: Q04DX003 (ip), vehicle: Klucel (hydroxypropylcellulose) (HPC).
Setting [5] is: dose: 200.0 mg/kg/injection, schedule: Q04DX003 (ip), vehicle: Klucel (hydroxypropylcellulose) (HPC).
Setting [6] is: dose: 400.0 mg/kg/injection, schedule: Q04DX003 (ip), vehicle: Klucel (hydroxypropylcellulose) (HPC).
Setting [7] is: dose: 100.0 mg/kg/injection, schedule: Q01DX001 (ip), vehicle: saline with Tween-80.
Where [8] appears, read: dose: 200.0 mg/kg/injection, schedule: Q01DX001 (ip), vehicle: saline with Tween-80.
[9] abbreviates: dose: 400.0 mg/kg/injection, schedule: Q01DX001 (ip), vehicle: saline with Tween-80.

`NCCc1ccc2c(c1)OCO2`: the T/C is 109 % of control (dose: 25.0 mg/kg/injection, schedule: Q01DX009 (ip), vehicle: saline); 107 % of control (dose: 50.0 mg/kg/injection, schedule: Q01DX009 (ip), vehicle: saline); 100 % of control and 107 % of control (dose: 100.0 mg/kg/injection, schedule: Q01DX009 (ip), vehicle: saline); 97 % of control (dose: 100.0 mg/kg/injection, schedule: Q04DX003 (ip), vehicle: saline); 102 % of control (dose: 200.0 mg/kg/injection, schedule: Q04DX003 (ip), vehicle: saline).

Take `Cc1cccc(NC(=O)NC2CCCCC2)c1C`: the T/C is, setting by setting: under setting [1], 111 % of control; under setting [2], 99 % of control; under setting [3], 86 % of control.

Consider `Cc1ccnc(NS(=O)(=O)c2ccc(N=Nc3ccc(O)c4ncccc34)cc2)n1`, for which the T/C (dose: 100.0 mg/kg/injection, schedule: Q01DX001 (ip), vehicle: saline) was 108 % of control; the T/C (dose: 200.0 mg/kg/injection, schedule: Q01DX001 (ip), vehicle: saline) is 100 % of control; the T/C (dose: 400.0 mg/kg/injection, schedule: Q01DX001 (ip), vehicle: saline) was 97 % of control.

For `O=C(CCl)c1cccnc1C(=O)O`, the T/C (dose: 25.0 mg/kg/injection, schedule: Q01DX009 (ip), vehicle: saline sonified) was 94 % of control; the T/C (dose: 50.0 mg/kg/injection, schedule: Q01DX009 (ip), vehicle: saline sonified) was 91 % of control; the T/C (dose: 100.0 mg/kg/injection, schedule: Q01DX009 (ip), vehicle: saline sonified) is 89 % of control.

In the case of `Cc1ccc(NC(=O)C(c2ccccc2)c2ccccc2)cc1Cl`, the T/C is 108 % of control (dose: 100.0 mg/kg/injection, schedule: Q01DX009 (ip), vehicle: Klucel (hydroxypropylcellulose) (HPC)); 88 % of control under setting [4]; 95 % of control (dose: 200.0 mg/kg/injection, schedule: Q01DX009 (ip), vehicle: Klucel (hydroxypropylcellulose) (HPC)); 91 % of control under setting [5]; 108 % of control (dose: 400.0 mg/kg/injection, schedule: Q01DX009 (ip), vehicle: Klucel (hydroxypropylcellulose) (HPC)); 101 % of control under setting [6].

`CCCCCCCCCCC(N)C(=O)O` (configuration not stated): the T/C (dose: 12.5 mg/kg/injection, schedule: Q04DX002 (ip), vehicle: Klucel (hydroxypropylcellulose) (HPC)) is 104 % of control; the T/C (dose: 25.0 mg/kg/injection, schedule: Q04DX002 (ip), vehicle: Klucel (hydroxypropylcellulose) (HPC)) is 91 % of control; the T/C (dose: 50.0 mg/kg/injection, schedule: Q04DX002 (ip), vehicle: Klucel (hydroxypropylcellulose) (HPC)) is 88 % of control.

For the molecule `CCC(CCl)NC(=O)Nc1cccc2c1CCCC2` (configuration not stated), the T/C under setting [4] is 98 % of control, the T/C under setting [5] was 96 % of control and the T/C under setting [6] is 98 % of control.

Consider `CCCNC(=O)Oc1cccc(NC(=O)CC)c1`, for which the T/C is 100 % of control (dose: 25.0 mg/kg/injection, schedule: Q01DX009 (ip), vehicle: saline with Tween-80); 100 % of control (dose: 50.0 mg/kg/injection, schedule: Q01DX009 (ip), vehicle: saline with Tween-80); 92 % of control (dose: 100.0 mg/kg/injection, schedule: Q01DX009 (ip), vehicle: saline with Tween-80).

On to `C=COC(N)=O`, for which the T/C reads like this: (dose: 33.0 mg/kg/injection, schedule: Q01DX001 (ip), vehicle: saline) 116 % of control; (dose: 50.0 mg/kg/injection, schedule: Q01DX001 (ip), vehicle: saline) 117 % of control; (dose: 75.0 mg/kg/injection, schedule: Q01DX001 (ip), vehicle: saline) 121 % of control; (dose: 113.0 mg/kg/injection, schedule: Q01DX001 (ip), vehicle: saline) 111 % of control.

As for `Cc1ccc2c(c1)C(c1ccccc1)(c1ccccc1)OC2`, the T/C (dose: 50.0 mg/kg/injection, schedule: Q01DX001 (ip), vehicle: carboxymethylcellulose (CMC)) was 101 % of control; the T/C (dose: 100.0 mg/kg/injection, schedule: Q01DX001 (ip), vehicle: carboxymethylcellulose (CMC)) was 95 % of control; the T/C (dose: 200.0 mg/kg/injection, schedule: Q01DX001 (ip), vehicle: carboxymethylcellulose (CMC)) was 89 % of control; the T/C (dose: 400.0 mg/kg/injection, schedule: Q01DX001 (ip), vehicle: carboxymethylcellulose (CMC)) is 101 % of control.

Turning to `c1ccc(NC2CCCCC2)cc1`, the T/C is 103 % of control (dose: 50.0 mg/kg/injection, schedule: Q01DX003 (ip), vehicle: Klucel (hydroxypropylcellulose) (HPC)); 101 % of control (dose: 100.0 mg/kg/injection, schedule: Q01DX003 (ip), vehicle: Klucel (hydroxypropylcellulose) (HPC)); 101 % of control (dose: 200.0 mg/kg/injection, schedule: Q01DX003 (ip), vehicle: Klucel (hydroxypropylcellulose) (HPC)).

Turning to `CN(C)c1ccc(/C=C/C(=O)c2ccc([N+](=O)[O-])cc2)cc1`, the T/C was 100 % of control (dose: 3.0 mg/kg/injection, schedule: Q01DX009 (ip), vehicle: gum acacia); 96 % of control (dose: 6.0 mg/kg/injection, schedule: Q01DX009 (ip), vehicle: gum acacia); 94 % of control (dose: 12.0 mg/kg/injection, schedule: Q01DX009 (ip), vehicle: gum acacia); 91 % of control (dose: 12.5 mg/kg/injection, schedule: Q01DX009 (ip), vehicle: gum acacia); 87 % of control (dose: 100.0 mg/kg/injection, schedule: Q01DX009 (ip), vehicle: gum acacia); 89 % of control (dose: 100.0 mg/kg/injection, schedule: Q04DX003 (ip), vehicle: gum acacia). Also, the T/C (dose: 200.0 mg/kg/injection, schedule: Q04DX003 (ip), vehicle: gum acacia) was 86 % of control; the T/C (dose: 400.0 mg/kg/injection, schedule: Q01DX009 (ip), vehicle: gum acacia) was 96 % of control; the T/C (dose: 400.0 mg/kg/injection, schedule: Q04DX003 (ip), vehicle: gum acacia) was 89 % of control.

Consider `OB(O)CI`, for which the T/C (dose: 5.0 mg/kg/injection, schedule: Q01DX001 (ip), vehicle: saline) was 86 % of control; the T/C (dose: 10.0 mg/kg/injection, schedule: Q01DX001 (ip), vehicle: saline) was 95 % of control; the T/C (dose: 20.0 mg/kg/injection, schedule: Q01DX001 (ip), vehicle: saline) is 97 % of control.

Take `N#Cc1c(Br)n(C2OC(CO)C(O)C2O)c2ncncc12` (configuration not stated): the T/C by setting is: (dose: 100.0 mg/kg/injection, schedule: Q01DX005 (ip), vehicle: saline) 114 % of control; (dose: 200.0 mg/kg/injection, schedule: Q01DX005 (ip), vehicle: saline) 114 % of control.

Turning to `CCCCCCCCN(C)Cc1cc(C(C)(C)C)cc(-c2ccccc2)c1O`, the T/C runs as follows: under setting [7], 94 % of control; under setting [8], 90 % of control; under setting [9], 92 % of control.

Consider `Cc1cc(C(N)=O)c(C(N)=O)c(=O)[nH]1`, for which the T/C is 97 % of control (dose: 75.0 mg/kg/injection, schedule: Q01DX001 (ip), vehicle: water) and 92 % of control (dose: 150.0 mg/kg/injection, schedule: Q01DX001 (ip), vehicle: water).

For the molecule `C#CCOCCC(=O)O`, where the note is “dose: 100.0 mg/kg/injection, schedule: Q04DX003 (ip), vehicle: acetone”, the T/C is 106 % of control.

As to `CC1CCC2(C(=O)OC3OC(COC4OC(CO)C(OC5OC(C)C(O)C(O)C5O)C(O)C4O)C(O)C(O)C3O)CCC3(C)C(=CCC4C5(C)CC(O)C(O)C(C)(CO)C5CCC43C)C2C1C` (configuration not stated), the T/C by setting is: under setting [7], 98 % of control; under setting [8], 98 % of control; under setting [9], 97 % of control.

For the molecule `NCNc1nc(NCN)nc(N(CN)CN)n1`, the T/C (dose: 100.0 mg/kg/injection, schedule: Q04DX003 (ip), vehicle: saline with Tween-80) was 92 % of control; the T/C (dose: 200.0 mg/kg/injection, schedule: Q04DX003 (ip), vehicle: saline with Tween-80) is 88 % of control; the T/C (dose: 400.0 mg/kg/injection, schedule: Q04DX003 (ip), vehicle: saline with Tween-80) was 88 % of control.

Turning to `COc1ccc(/C=C2\N=C(c3cc(OC)c(OC)c(OC)c3)OC2=O)cc1`, the T/C by setting is: under setting [1], 95 % of control; under setting [2], 98 % of control; under setting [3], 88 % of control.

As for `CCOC(=O)NP(=O)(N1CC1(C)C)N1CC1(C)C` (configuration not stated), the T/C is, setting by setting: (dose: 62.5 mg/kg/injection, schedule: Q01DX010 (ip), vehicle: saline) 115 % of control and 120 % of control; (dose: 125.0 mg/kg/injection, schedule: Q01DX010 (ip), vehicle: saline) 117 % of control; (dose: 250.0 mg/kg/injection, schedule: Q01DX010 (ip), vehicle: saline) 151 % of control and 157 % of control.
